Source: article PMC11772017 (Clinical and Translational Science, 2025)
pKi: −log10 of the molar value. Counter-ions that a name gives are not always drawn.

Legend:
[1] = molecular target: T1, CYP2D6*1 (Homo sapiens, UniProt P10635); experiment: Inhibition of tramadol O-demethylation, CYP2D6*1 Bactosomes
[2] = molecular target: T2, CYP2D6*2 (Homo sapiens, UniProt P10635, R296C/S486T); experiment: Inhibition of tramadol O-demethylation, CYP2D6*2 Bactosomes; settings: for Ki Ratio CYP2D6*2/CYP2D6*1: Ki of variant allele / Ki of CYP2D6*1
[3] = molecular target: T3, CYP2D6*10 (Homo sapiens, UniProt P10635, P34S/S486T); experiment: Inhibition of tramadol O-demethylation, CYP2D6*10 Bactosomes; settings: for Ki Ratio CYP2D6*10/CYP2D6*1: Ki of variant allele / Ki of CYP2D6*1
[4] = molecular target: T4, CYP2D6*17 (Homo sapiens, UniProt P10635, R296C/S486T/T107I); experiment: Inhibition of tramadol O-demethylation, CYP2D6*17 Bactosomes; settings: for Ki Ratio CYP2D6*17/CYP2D6*1: Ki of variant allele / Ki of CYP2D6*1
[5] = test system: CYP2D6*10; settings: microsomes prepared from insect cells; cited from earlier work
[6] = test system: CYP2D6*17; settings: tramadol as substrate; cited from earlier work
[7] = molecular target: T1, CYP2D6*1
[8] = molecular target: T2, CYP2D6*2
[9] = molecular target: T3, CYP2D6*10
[10] = molecular target: T4, CYP2D6*17

CC(NC(C)(C)C)C(=O)c1cccc(Cl)c1 (stereo not drawn) [Bupropion, bupropion]
pKi [1]: 4.92 | pKi [2]: 4.94 | Ki Ratio CYP2D6*2/CYP2D6*1 [2]: 0.96 | pKi [3]: 4.25 | Ki Ratio CYP2D6*10/CYP2D6*1 [3]: 4.69 | pKi [4]: 4.69 | Ki Ratio CYP2D6*17/CYP2D6*1 [4]: 1.70

CN(C/C=C/C#CC(C)(C)C)Cc1cccc2ccccc12 [Terbinafine, terbinafine]
pKi [1]: 7.76 | pKi [2]: 7.17 | Ki Ratio CYP2D6*2/CYP2D6*1 [2]: 3.87 | pKi [3]: 6.63 | Ki Ratio CYP2D6*10/CYP2D6*1 [3]: 13.61 | pKi [4]: 6.07 | Ki Ratio CYP2D6*17/CYP2D6*1 [4]: 48.77

COc1cccc(C2(O)CCCCC2CN(C)C)c1 (stereo not drawn) [Tramadol, tramadol hydrochloride]
intrinsic clearance value, % of that for CYP2D6*1 [5]: 6.9% | intrinsic clearance relative to CYP2D6*1 [6]: 36% | CLint ([7]; CYP2D6*1, CLint = Vmax/Km): 0.4 μL/min/pmol P450 | Vmax ([7]; CYP2D6*1, O-desmethyltramadol formation): 22.6 pmol/min/pmol P450 | Km at 30 min ([7]; human, recombinant CYP2D6*1 Bactosomes, pH 7.4): 59.6 µM | intrinsic clearance compared to CYP2D6*1 ([8]; CYP2D6*2, relative to CYP2D6*1): 180% | CLint ratio CYP2D6*X/CYP2D6*1 ([8]; CYP2D6*2/CYP2D6*1): 1.8 | CLint ([8]; CYP2D6*2, CLint = Vmax/Km): 0.7 μL/min/pmol P450 | Vmax ([8]; CYP2D6*2, O-desmethyltramadol formation): 39.7 pmol/min/pmol P450 | Km at 30 min ([8]; human, recombinant CYP2D6*2 Bactosomes, pH 7.4): 59.4 µM | intrinsic clearance compared to CYP2D6*1 ([9]; CYP2D6*10, relative to CYP2D6*1): 20% | CLint ratio CYP2D6*X/CYP2D6*1 ([9]; CYP2D6*10/CYP2D6*1): 0.2 | CLint ([9]; CYP2D6*10, CLint = Vmax/Km): 0.1 μL/min/pmol P450 | Vmax ([9]; CYP2D6*10, O-desmethyltramadol formation): 13.6 pmol/min/pmol P450 | Km at 30 min ([9]; human, recombinant CYP2D6*10 Bactosomes, pH 7.4): 204 µM | intrinsic clearance compared to CYP2D6*1 ([10]; CYP2D6*17, relative to CYP2D6*1): 10% | CLint ratio CYP2D6*X/CYP2D6*1 ([10]; CYP2D6*17/CYP2D6*1): 0.1 | Vmax ([10]; CYP2D6*17, O-desmethyltramadol formation): 5.6 pmol/min/pmol P450 | Km at 30 min ([10]; human, recombinant CYP2D6*17 Bactosomes, pH 7.4): 149 µM
